Experimental data: ChEMBL document CHEMBL1201862, “PubChem BioAssay data set” (2004)
Activity calls are given as the source filed them.

Key:
[1] = viability inhibitors of stage V gametocytes – luminescence, dose response (AID 1117278); format: functional, cell-based;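 also: gametocytes exposed to compound for 24 hours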
[2] = viability loss in human Jurkat cells – cell-based, luminescence, cytotoxicity control for P. falciparum gametocyte viability project, dose response (AID 1117277); format: functional;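 also: potency reflects loss of cellular ATP meaning fewer viable cells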
[3] = target: T1, 1-phosphatidylinositol 4,5-bisphosphate phosphodiesterase gamma-1 (Homo sapiens, UniProt P19174); test: Counterscreen for inhibitors of phospholipase C isozymes (PLC-B3): Fluorescence-based biochemical high throughput dose response assay to identify inhibitors of phospholipase C isozymes (PLC-gamma1).
T1 sequence (P19174 whole entry): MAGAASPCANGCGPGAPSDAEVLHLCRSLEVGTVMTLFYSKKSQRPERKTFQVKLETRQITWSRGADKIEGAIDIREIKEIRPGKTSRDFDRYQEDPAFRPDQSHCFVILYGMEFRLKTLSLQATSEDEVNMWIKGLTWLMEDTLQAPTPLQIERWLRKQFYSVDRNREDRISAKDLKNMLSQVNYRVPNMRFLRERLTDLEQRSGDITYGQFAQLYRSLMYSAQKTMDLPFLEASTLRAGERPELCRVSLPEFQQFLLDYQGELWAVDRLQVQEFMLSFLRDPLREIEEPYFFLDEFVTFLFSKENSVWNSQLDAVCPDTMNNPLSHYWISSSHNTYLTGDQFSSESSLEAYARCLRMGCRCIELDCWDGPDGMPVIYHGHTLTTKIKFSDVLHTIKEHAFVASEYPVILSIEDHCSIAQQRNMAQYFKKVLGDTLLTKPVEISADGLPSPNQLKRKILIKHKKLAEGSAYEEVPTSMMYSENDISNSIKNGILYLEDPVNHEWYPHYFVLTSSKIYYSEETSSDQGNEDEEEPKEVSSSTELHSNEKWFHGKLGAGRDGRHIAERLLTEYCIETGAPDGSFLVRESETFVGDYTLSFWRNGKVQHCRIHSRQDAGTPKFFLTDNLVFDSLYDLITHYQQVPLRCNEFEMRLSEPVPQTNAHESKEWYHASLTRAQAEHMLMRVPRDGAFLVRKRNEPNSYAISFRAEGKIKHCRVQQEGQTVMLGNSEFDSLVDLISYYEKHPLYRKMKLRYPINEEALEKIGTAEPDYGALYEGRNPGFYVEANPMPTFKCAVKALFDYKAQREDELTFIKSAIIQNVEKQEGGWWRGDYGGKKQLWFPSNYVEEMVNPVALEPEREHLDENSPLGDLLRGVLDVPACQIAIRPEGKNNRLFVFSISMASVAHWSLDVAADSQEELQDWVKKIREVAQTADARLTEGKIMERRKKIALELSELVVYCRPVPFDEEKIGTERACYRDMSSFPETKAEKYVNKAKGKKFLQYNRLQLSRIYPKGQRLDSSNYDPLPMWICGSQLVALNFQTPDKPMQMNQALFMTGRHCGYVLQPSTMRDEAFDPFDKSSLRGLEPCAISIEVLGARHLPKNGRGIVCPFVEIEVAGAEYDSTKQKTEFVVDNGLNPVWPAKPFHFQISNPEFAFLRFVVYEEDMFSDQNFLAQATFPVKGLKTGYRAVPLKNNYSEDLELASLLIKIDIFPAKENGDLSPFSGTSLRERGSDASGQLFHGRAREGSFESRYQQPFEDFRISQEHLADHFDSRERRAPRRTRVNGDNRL

[4] = target: T2, 1-phosphatidylinositol 4,5-bisphosphate phosphodiesterase beta-3 (Homo sapiens, UniProt Q01970); test: Fluorescence-based biochemical high throughput dose response assay to identify inhibitors of phospholipase C isozymes (PLC-B3).
T2 sequence (Q01970 whole entry): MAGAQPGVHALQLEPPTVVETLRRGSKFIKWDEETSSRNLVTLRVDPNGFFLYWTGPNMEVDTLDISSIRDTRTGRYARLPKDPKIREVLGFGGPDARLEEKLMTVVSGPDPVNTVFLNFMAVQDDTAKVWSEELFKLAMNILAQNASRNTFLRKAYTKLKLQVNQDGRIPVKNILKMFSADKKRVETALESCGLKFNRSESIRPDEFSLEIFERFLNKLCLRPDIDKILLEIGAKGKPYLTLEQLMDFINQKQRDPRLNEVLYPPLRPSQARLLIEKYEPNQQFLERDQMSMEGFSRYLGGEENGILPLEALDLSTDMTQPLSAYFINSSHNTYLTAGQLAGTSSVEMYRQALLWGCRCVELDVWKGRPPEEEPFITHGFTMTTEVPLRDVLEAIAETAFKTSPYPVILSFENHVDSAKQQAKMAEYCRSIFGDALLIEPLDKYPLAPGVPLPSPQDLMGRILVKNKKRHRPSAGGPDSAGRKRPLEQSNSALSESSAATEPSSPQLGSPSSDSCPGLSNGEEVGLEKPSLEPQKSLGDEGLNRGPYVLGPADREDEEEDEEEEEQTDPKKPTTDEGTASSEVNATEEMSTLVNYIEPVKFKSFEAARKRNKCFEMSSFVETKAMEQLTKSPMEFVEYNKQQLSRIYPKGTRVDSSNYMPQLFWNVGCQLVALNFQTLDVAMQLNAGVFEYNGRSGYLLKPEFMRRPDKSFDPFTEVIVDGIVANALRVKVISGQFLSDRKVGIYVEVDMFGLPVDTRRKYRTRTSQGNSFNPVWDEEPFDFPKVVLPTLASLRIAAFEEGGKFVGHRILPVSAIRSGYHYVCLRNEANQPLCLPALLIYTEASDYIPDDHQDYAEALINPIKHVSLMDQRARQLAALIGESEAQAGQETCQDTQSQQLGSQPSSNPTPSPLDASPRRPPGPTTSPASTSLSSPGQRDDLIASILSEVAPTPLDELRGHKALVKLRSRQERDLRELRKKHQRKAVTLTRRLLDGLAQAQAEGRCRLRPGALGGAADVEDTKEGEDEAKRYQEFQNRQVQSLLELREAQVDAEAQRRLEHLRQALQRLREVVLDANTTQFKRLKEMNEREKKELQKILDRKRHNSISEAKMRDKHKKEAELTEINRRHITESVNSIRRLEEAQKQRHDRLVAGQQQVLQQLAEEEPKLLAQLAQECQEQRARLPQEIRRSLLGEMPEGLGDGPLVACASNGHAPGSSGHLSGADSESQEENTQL

[5] = HGIII-sPLA2 enzyme inhibition potency – biochemical, QFRET, IC50, dose response (AID 743457);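 also: green fluorescence rise as the enzyme cleaves BODIPY PC-A2 in liposomes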
[6] = target: T3, Rac GTPase-activating protein 1 (Homo sapiens, UniProt Q9H0H5); test: blockers of MgcRacGAP-driven Rac1 GTP hydrolysis – biochemical, ADP Hunter fluorescence, primary and confirmatory, confirmation (AID 624330); format: functional
T3 sequence (Q9H0H5 whole entry): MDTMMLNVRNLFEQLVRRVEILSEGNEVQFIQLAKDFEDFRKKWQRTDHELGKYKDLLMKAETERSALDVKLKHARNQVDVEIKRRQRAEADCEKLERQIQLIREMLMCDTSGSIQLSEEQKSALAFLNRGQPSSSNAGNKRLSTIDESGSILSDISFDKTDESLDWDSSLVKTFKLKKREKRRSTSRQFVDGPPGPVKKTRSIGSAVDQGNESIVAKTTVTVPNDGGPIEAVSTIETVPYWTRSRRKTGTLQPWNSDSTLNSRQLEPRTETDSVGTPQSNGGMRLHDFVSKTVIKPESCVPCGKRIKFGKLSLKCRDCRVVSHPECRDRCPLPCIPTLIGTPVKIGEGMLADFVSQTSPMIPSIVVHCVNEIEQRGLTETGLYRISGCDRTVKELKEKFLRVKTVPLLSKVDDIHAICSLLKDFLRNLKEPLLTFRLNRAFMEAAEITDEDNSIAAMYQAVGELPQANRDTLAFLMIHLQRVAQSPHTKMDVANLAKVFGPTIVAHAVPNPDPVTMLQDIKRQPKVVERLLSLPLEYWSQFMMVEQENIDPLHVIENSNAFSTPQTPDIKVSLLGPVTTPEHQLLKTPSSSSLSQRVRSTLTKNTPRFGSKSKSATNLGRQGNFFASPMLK

[7] = general mammalian cell viability loss – activator set, cherry-pick, cytotoxicity control for miR-122 modulator project, dose response (AID 720690); format: functional, cell-based;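 also: HEK293T human cells scored for general mammalian cytotoxicity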
[8] = general mammalian cell viability loss – inhibitor set, cherry-pick, set 2, cytotoxicity control for miR-122 modulator project, dose response (AID 720697); format: functional, cell-based
[9] = activation of miR-122 Renilla sensor silencing – cell-based, Huh7 psiCHECK-miR122, Renilla luciferase, cherry-picked, dose response (AID 651956); format: functional;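 also: huh7 hepatoma cells stably carrying a psiCHECK-2 miR-122 sensor plasmid; renilla luciferase signal reporting endogenous miR-122 activity after 48 h compound exposure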
[10] = growth inhibition of PfATP4-mutant resistant parasites – NITD609-resistant line, SYBR Green, dry powder, dose response (AID 1159571); format: functional, cell-based;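 also: parasites synchronized at ring stage by sorbitol before testing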
[11] = Dd2 malaria parasite growth inhibition potency – SYBR Green, dry powder samples, dose response (AID 1159566); format: functional, cell-based;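 also: potency for growth inhibition with lower SYBR green DNA signal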
[12] = P. falciparum Dd2 growth inhibitors, dose response, SYBR Green, cherry-picked samples (AID 1159567); format: functional, cell-based
[13] = growth inhibition of yeast DHODH-expressing 3D7 parasites – SYBR Green, dry powder samples, dose response (AID 1159570); format: functional, cell-based;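 also: parasite growth measured after 72 hours of compound exposure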
[14] = toxicity to human HepG2 hepatoma cells – cell-based, plate reader, dry powder samples, cytotoxicity control, dose response (AID 1159569); format: functional;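 also: inhibitor potency with signal falling toward the positive control level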

**Q.** With `COc1cc(C(=O)N2CCC(n3cnc4cc(F)ccc43)CC2)cc(OC)c1OC` as the molecule, how does the IC50 [1] read?
**A.** > 109 µM (inactive)

**Q.** And the IC50 [2]?
**A.** > 83.3 µM (inactive)

**Q.** Which IC50 [1] does the source give for `COc1ccccc1CN(C)C(C)C(=O)Nc1cccc(C(C)=O)c1` (stereo not drawn) here?
**A.** > 109 µM (inactive)

**Q.** What about the IC50 [2] of the same molecule?
**A.** > 83.3 µM (inactive)

**Q.** Which results are given for `O=C1CS(=O)(=O)c2ccccc2N1`?
**A.** IC50 [3]: 35.7 µM (inactive); IC50 [4]: > 123 µM (inactive)

**Q.** What does the source list for `Cc1ccc(Nc2n[nH]c(=S)s2)cc1`?
**A.** IC50 [5]: > 122 µM (inactive); IC50 [6]: 72.2 µM (active)

**Q.** Which results are given for `CN1C(=O)c2cc(NC(=O)c3ccc(C(F)(F)F)cc3)ccc2OC[C@@H]2O[C@H](CC(=O)NCc3ccc4c(c3)OCO4)CC[C@@H]21`?
**A.** AC50 [7]: 12.6 µM (active); AC50 [8]: 28 µM (active); AC50 [9]: 6.22 µM (active)

**Q.** Which AC50 [7] does the source give for `CNC[C@H]1Oc2cc(C#CC3CCCCC3)ccc2S(=O)(=O)N([C@H](C)CO)C[C@@H]1C` here?
**A.** 28.8 µM (active)

**Q.** What about the AC50 [8] of the same molecule?
**A.** 0.433 µM (active)

**Q.** What does the source list for `COc1ccc(NC(=O)Nc2ccc3c(c2)[C@@H]2C[C@H](CC(=O)N[C@@H](C)c4ccccc4)O[C@H](CO)[C@@H]2O3)cc1`?
**A.** AC50 [10]: 2.16 µM (active); AC50 [11]: 1.62 µM (active); AC50 [12]: 2.22 µM (active); AC50 [13]: 35.3 µM (active); AC50 [14]: > 100 µM (inactive)

**Q.** Which results are given for `COc1ccc2c3c(n(C)c2c1)[C@@H](CO)N(Cc1ccc(Cl)cc1)CC31CCN(CC2CC2)CC1`?
**A.** AC50 [10]: 1.7 µM (active); AC50 [11]: 1.67 µM (active); AC50 [12]: 1.86 µM (active); AC50 [13]: 2.64 µM (active); AC50 [14]: 22 µM (active)
